# Assay results reported in US20220168310A1, “INHIBITION OF ADENOVIRUS WITH FILOCICLOVIR” (Microbiotix, Inc., priority 2019, published 2022).
# What was measured:
# adenovirus 3 (AdV3) = assay: Efficacy against adenovirus 3 (data not shown)
# AdV5 = assay: Immunofluorescence assay (DBP and hexon staining), AdV5-infected A549 cells; type: cell-based, human adenovirus; settings: 27 hours post-infection
# Protocol: Human A549 cells on glass coverslips in 6-well plates were infected at an MOI of 5 PFU/cell with either AdV5 or AdV6 or were mock-infected. After 1 hour, filociclovir was added to a final concentration of 0, 4, 10, or 40 μM. At 27 hours post-infection, the A549 cells were fixed in paraformaldehyde (3.7% in PBS) and permeabilized with methanol. Cells were stained for the Adenovirus DNA-binding protein and adenovirus hexon. DBP staining will be […] and uniform during early AdV infection (prior to AdV DNA replication). DBP associates with replication centers as the infection progresses. The replication centers are initially small “dots” (each dot results from one incoming AdV genome). The replication centers will expand and “multiply” as DNA replication takes place. The nuclei become enlarged and misshapen as infection progresses. AdV hexon, the most abundant component of the AdV viral capsid, is not expressed until after DNA replication is taking place and is therefore considered to be a “late” AdV protein.
# Adenovirus 5 (AdV5) = assay: Cytopathic effects (CPE) reduction assay, AdV5 in HFF cells, 384-well; type: cell-based, human adenovirus
# [1] = Cytotoxicity, CellTiter-Glo cell viability assay in HFF cells; settings: human, human foreskin fibroblast (HFF) cell monolayers
# Protocol: Human foreskin tissue was obtained from the University of Alabama at Birmingham tissue procurement facility with approval from the Institutional Review Board. The tissue was stored at 4° C. in cell culture medium consisting of minimum essential media (MEM) with Earle's salts supplemented with 10% fetal bovine serum (FBS; HyClone, Inc., Logan, Utah) and standard concentration of L-glutamine, amphotericin B (Fungizone), and vancomycin. The tissue was then placed in a phosphate-buffered saline solution, minced, and rinsed to remove the red blood cells. Tissue fragments were then resuspended in a trypsin-EDTA solution and incubated at 37° C. to disperse the cells, which were then collected by centrifugation. Cell pellets were then resuspended in 4 ml culture medium, placed in a 25-cm^2 tissue culture flask, and incubated at 37° C. for 24 h. The culture medium was then replaced with fresh medium and condition of the cells was monitored daily until a confluent cell monolayer was formed. The HFF cells were then expanded through serial passages in standard growth medium of MEM with Earle's salts supplemented with 10% FBS, L-glutamine, penicillin, and gentamicin. Each lot of cells was confirmed to be free of mycoplasma infection and routinely passaged or used for assays at or before passage 10.
# Antiviral and cytotoxicity data were obtained in a series of three to five separate experiments for each virus to provide an accurate estimate of antiviral activity and statistical data. Each assay included positive and negative control compounds as well as infected and uninfected controls to ensure the integrity of the experiment.
# The CPE reduction assays were performed in monolayers of human foreskin fibroblast (HFF) cells (5000/well) in 384-well plates in assay media consisting of MEM with Earle's salts, 2% FBS and standard concentrations of L-glutamine, penicillin and gentamycin. 5000 cells were seeded in 384-well microtiter plates and incubated at 37° C. in a humidified 5% CO2 incubator for 24 hours to allow for formation of confluent monolayers.
# Cell monolayers were infected at a multiplicity of infection (MOI) of approximately 0.005 PFU/cell with virus strains including AdV5. […] Cytopathology was determined by the addition of CellTiter-Glo® reagent (Promega, Madison, Wis.). Concentrations of antiviral test compounds sufficient to reduce CPE by 50% (EC50) were interpolated from the experimental data using standard methods in Microsoft® Excel.
# adenovirus 37 (AdV37) = assay: Efficacy against adenovirus 37 (data not shown)
smiles,measurement,setting,value
"Nc1nc2c(ncn2/C=C2/CC2(CO)CO)c(=O)[nH]1 [FCV, 2-amino-9-{(Z)-[2,2-bis(hydroxymethyl)cyclopropylidene]methyl}-3,9-dihydro-6H-purin-6-one]",treat or prevent infection,adenovirus 3 (AdV3),effective
same,hexon-positive cells,"AdV5; AdV5, 4 μM",Some hexon-positive cells
same,hexon-positive cells,"AdV5; AdV5, 10 μM",extremely few hexon-positive cells
same,hexon-positive cells,"AdV5; AdV5, 40 μM",No hexon-positive cells
same,concentration as low as which is effective to reduce AdV replication,"Adenovirus 5 (AdV5); FIG. 1, AdV5",0.2 µM
same,EC50,"Adenovirus 5 (AdV5); Human mastadenovirus C, AdV5, HFF cells, 384 well CPE, average and SD from five independent experiments, read-out: EC50",2.2 ± 0.4 µM
same,CC50,"[1]; CC50, AdV6 line of Table 2, unit inferred",> 100 µM
same,CC50,"[1]; CC50, AdV7 line of Table 2, unit inferred",> 150 µM
same,CC50,"[1]; CC50, AdV8 line of Table 2, unit inferred",> 150 µM
same,CC50,"[1]; CC50, HFF cells, run with AdV5 assay, average and SD from five independent experiments",95 ± 10.6 µM
same,CC50,"[1]; mammalian cytotoxicity (CC50), summary statement, 'preferably'",100 to 150 µM
same,treat or prevent infection,adenovirus 37 (AdV37),effective
